Test results reported in patent US20230145305A1, “COMPOUNDS USEFUL AS KINASE INHIBITORS” (Fochon Biosciences, Ltd., priority 2020, published 2023).
Like-named read-outs stand apart in the source and are kept apart here.

System: OCI-LY10 cells
Test: Cell proliferation assay (MTS) in OCI-LY10 cells
Type: cell-based
Conditions: Homo sapiens
Text: MTS testing kit was purchased from Promega (Madison, Wis., USA). The RPMI-1640, Fetal bovine serum and Penicillin-Streptomycin were purchased from BI (Biological Industries, Beit Haemek, Israel). Dimethyl sulfoxide (DMSO) was purchased from Sigma (St. Louis., Mo., USA). […] To investigate whether a compound is able to inhibit the activity of BTK in cells, a mechanism-based assay using OCI-LY10 cells was developed. In this assay, inhibition of BTK was detected by the inhibition of OCI-LY10 cells proliferation. Cells were plated into 96-well plates at a density of 10000 cells/well. Plates were incubated at 37° C., with 5% CO2 for 4 h. […] Plates were incubated at 37° C., with 5% CO2 for 72 h. 20 μl MTS was added into each well and the plates were incubated at 37° C., with 5% CO2 for exactly 2 h. The absorbance was measured by a microplate reader at 490 nm. IC50 was calculated using GraphPad Prism 5.0 software. Select compounds prepared as described above were assayed according to the biological procedures described herein.

[1] = inhibition of OCI-LY10 cells proliferation, 72 h incubation, MTS, absorbance at 490 nm, read-out: OCI-LY10 IC50
[2] = OCI-Ly10, 72 h, read-out: OCI-LY10 IC50 (nM)

COc1ccc(F)cc1C(=O)NCc1ccc(-n2nc(C(C)C3CC3)c3c(=O)[nH]nc(N)c32)cc1 (stereo not shown) [Example 96, N-(4-(7-amino-3-(1-cyclopropylethyl)-4-oxo-4,5-dihydro-1H-pyrazolo[3,4-d]pyridazin-1-yl)benzyl)-5-fluoro-2-methoxybenzamide]
IC50 [1]: 1 nM

COc1ccc(F)cc1C(=O)NCc1ccc(-c2nn(C(C)C)c3c(=O)[nH]nc(N)c23)cc1 [Example 68, N-(4-(4-amino-1-isopropyl-7-oxo-6,7-dihydro-1H-pyrazolo[3,4-d]pyridazin-3-yl)benzyl)-5-fluoro-2-methoxybenzamide]
IC50 [1]: 2 nM

COc1ccc(F)cc1C(=O)NCc1ccc(-c2nn(C3(C(F)(F)F)CC3)c3c(=O)[nH]nc(N)c23)cc1 [Example 87, N-(4-(4-amino-7-oxo-1-(1-(trifluoromethyl)cyclopropyl)-6,7-dihydro-1H-pyrazolo [3,4-d]pyridazin-3-yl)benzyl)-5-fluoro-2-methoxybenzamide]
IC50 [1]: 4 nM

COc1ccc(F)cc1C(=O)NCc1ccc(-n2c(=O)n(C3CCCC3)c3ccnc(N)c32)cc1 [Example 22, N-(4-(4-amino-1-cyclopentyl-2-oxo-1,2-dihydro-3H-imidazo[4,5-c]pyridin-3-yl)benzyl)-5-fluoro-2-methoxybenzamide]
IC50 [1]: 44 nM

CCS(=O)(=O)N1CC[C@@H](n2cc(-c3ccc(CNC(=O)c4cc(F)ccc4OC)cc3)c3c(N)n[nH]c(=O)c32)C1 [Example 110, (R)-N-(4-(4-amino-1-(1-(ethylsulfonyl)pyrrolidin-3-yl)-7-oxo-6,7-dihydro-1H-pyrrolo[2,3-d]pyridazin-3-yl)benzyl)-5-fluoro-2-methoxybenzamide]
IC50 [1]: 23 nM

COc1ccc(F)cc1C(=O)NCc1ccc(-c2cn(C3CCC3)c3c(=O)[nH]nc(N)c23)cc1 [Example 36, N-(4-(4-amino-1-cyclobutyl-7-oxo-6,7-dihydro-1H-pyrrolo[2,3-d]pyridazin-3-yl)benzyl)-5-fluoro-2-methoxybenzamide]
IC50 [1]: 1 nM

COc1ccc(F)cc1C(=O)NCc1ccc(-c2cn(C3CC3)c3c(=O)[nH]nc(N)c23)cc1 [Example 34, N-(4-(4-amino-1-cyclopropyl-7-oxo-6,7-dihydro-1H-pyrrolo[2,3-d]pyridazin-3-yl)benzyl)-5-fluoro-2-methoxybenzamide]
IC50 [1]: 4 nM

COc1ccc(F)cc1C(=O)NCc1ccc(-c2nc(C3CCCC3)n3ccnc(N)c23)cc1 [Example 13, N-(4-(8-amino-3-cyclopentylimidazo [l,5-a]pyrazin-1-yl)benzyl)-5-fluoro-2-methoxybenzamide]
IC50 [1]: 2 nM

COc1ncc(F)cc1C(=O)NCc1ccc(-c2nn(C3CCCC3)c3c(=O)[nH]nc(N)c23)cc1 [Example 61, N-(4-(4-amino-1-cyclopentyl-7-oxo-6,7-dihydro-1H-pyrazolo[3,4-d]pyridazin-3-yl)benzyl)-5-fluoro-2-methoxynicotinamide]
IC50 [1]: 15 nM

COc1ccc(F)cc1C(=O)NCc1ccc(-c2nc(C3CCCC3)n3ncnc(N)c23)cc1 [Example 12, N-(4-(4-amino-7-cyclopentylimidazo [5,1-f][1,2,4]triazin-5-yl)benzyl)-5-fluoro-2-methoxybenzamide]
IC50 [2]: 9 nM

COc1ccc(F)cc1C(=O)NCc1ccc(-c2cn([C@@H]3CCN(C(=O)C4CC4)C3)c3c(=O)[nH]nc(N)c23)cc1 [Example 48, (R)-N-(4-(4-amino-1-(1-(cyclopropanecarbonyl)pyrrolidin-3-yl)-7-oxo-6,7-dihydro-1H-pyrrolo[2,3-d]pyridazin-3-yl)benzyl)-5-fluoro-2-methoxybenzamide]
IC50 [1]: 48 nM

CC[C@@H](C)c1nn(-c2ccc(CNC(=O)c3cc(F)ccc3OC)cc2)c2c(N)n[nH]c(=O)c12 [Example 92b, (R)-N-(4-(7-amino-3-(sec-butyl)-4-oxo-4,5-dihydro-1H-pyrazolo[3,4-d]pyridazin-1-yl)benzyl)-5-fluoro-2-methoxybenzamide]
IC50 [1]: 22 nM

COc1ccc(F)cc1C(=O)NCc1ccc(-c2nn(C(C)C(F)F)c3c(=O)[nH]nc(N)c23)cc1 (stereo not shown) [Example 76, N-(4-(4-amino-1-(1,1-difluoropropan-2-yl)-7-oxo-6,7-dihydro-1H-pyrazolo [3,4-d]pyridazin-3-yl)benzyl)-5-fluoro-2-methoxybenzamide]
IC50 [1]: 1 nM

C=CC(=O)N1CC[C@@H](n2cc(-c3ccc(CNC(=O)c4cc(F)ccc4OC)cc3)c3c(N)n[nH]c(=O)c32)C1 [Example 109, (R)-N-(4-(1-(1-acryloylpyrrolidin-3-yl)-4-amino-7-oxo-6,7-dihydro-1H-pyrrolo [2,3-d]pyridazin-3-yl)benzyl)-5-fluoro-2-methoxybenzamide]
IC50 [1]: 1 nM

COc1ccc(F)cc1C(=O)NCc1ccc(-c2nn([C@@H](C(F)F)C3CC3)c3c(=O)[nH]nc(N)c23)cc1 [Example 89, (R)-N-(4-(4-amino-1-(1-cyclopropyl-2,2-difluoroethyl)-7-oxo-6,7-dihydro-1H-pyrazolo[3,4-d]pyridazin-3-yl)benzyl)-5-fluoro-2-methoxybenzamide]
IC50 [1]: 1 nM

CCC(C)c1nn(-c2ccc(CNC(=O)c3cc(F)ccc3OC)cc2)c2c(N)n[nH]c(=O)c12 (stereo not shown) [Example 92a, N-(4-(7-amino-3-(sec-butyl)-4-oxo-4,5-dihydro-1H-pyrazolo[3,4-d]pyridazin-1-yl)benzyl)-5-fluoro-2-methoxybenzamide]
IC50 [1]: 10 nM

COc1ncc(F)cc1C(=O)NCc1ccc(-c2cn(C3CCCC3)c3c(=O)[nH]nc(N)c23)cc1 [Example 71, N-(4-(4-amino-1-cyclopentyl-7-oxo-6,7-dihydro-1H-pyrrolo[2,3-d]pyridazin-3-yl)benzyl)-5-fluoro-2-methoxynicotinamide]
IC50 [1]: 23 nM

COc1ccc(F)cc1C(=O)NCc1ccc(-c2nn(C(C)(C)C)c3c(=O)[nH]nc(N)c23)cc1 [Example 66, N-(4-(4-amino-1-(tert-butyl)-7-oxo-6,7-dihydro-1H-pyrazolo[3,4-d]pyridazin-3-yl)benzyl)-5-fluoro-2-methoxybenzamide]
IC50 [1]: 1 nM

COc1ccc(F)cc1C(=O)NCc1ccc(-c2cn([C@@H]3C[C@@H]3F)c3c(=O)[nH]nc(N)c23)cc1F [Example 59, N-(4-(4-amino-1-((1R,2S)-2-fluorocyclopropyl)-7-oxo-6,7-dihydro-1H-pyrrolo[2,3-d]pyridazin-3-yl)-2-fluorobenzyl)-5-fluoro-2-methoxybenzamide]
IC50 [1]: 62 nM

COc1ccc(F)cc1C(=O)NCc1ccc(-c2nn([C@H]3CCC[C@@H]3F)c3c(=O)[nH]nc(N)c23)cc1 [Example 80, N-(4-(4-amino-1-((1S,2S)-2-fluorocyclopentyl)-7-oxo-6,7-dihydro-1H-pyrazolo[3,4-d]pyridazin-3-yl)benzyl)-5-fluoro-2-methoxybenzamide]
IC50 [1]: 1 nM

COc1ccc(F)cc1C(=O)NCc1ccc(-n2nc(C(C)(C)C)c3c(=O)[nH]nc(N)c32)cc1 [Example 94, N-(4-(7-amino-3-(tert-butyl)-4-oxo-4,5-dihydro-1H-pyrazolo[3,4-d]pyridazin-1-yl)benzyl)-5-fluoro-2-methoxybenzamide]
IC50 [1]: 1 nM

COc1ccc(F)cc1C(=O)NCc1ccc(-n2nc(C3CCCC3)c3ccnc(N)c32)cc1 [Example 14, N-(4-(7-amino-3-cyclopentyl-1H-pyrazolo [3,4-c]pyridin-1-yl)benzyl)-5-fluoro-2-methoxybenzamide]
IC50 [1]: 85 nM

COc1ccc(F)cc1C(=O)NCc1ccc(-c2cn(C3CCCC3(C)O)c3c(=O)[nH]nc(N)c23)cc1 (stereo not shown) [Example 38, N-(4-(4-amino-1-(2-hydroxy-2-methylcyclopentyl)-7-oxo-6,7-dihydro-1H-pyrrolo[2,3-d]pyridazin-3-yl)benzyl)-5-fluoro-2-methoxybenzamide]
IC50 [1]: 35 nM

COc1ccc(F)cc1C(=O)NCc1ccc(-c2nn(C3CCCC3)c3c(=O)[nH]nc(N)c23)cc1F [Example 62, N-(4-(4-amino-1-cyclopentyl-7-oxo-6,7-dihydro-1H-pyrazolo[3,4-d]pyridazin-3-yl)-2-fluorobenzyl)-5-fluoro-2-methoxybenzamide]
IC50 [2]: 1 nM

COc1ccc(F)cc1C(=O)NCc1ccc(-n2nc(CC3CC3)c3c(=O)[nH]nc(N)c32)cc1 [Example 93, N-(4-(7-amino-3-(cyclopropylmethyl)-4-oxo-4,5-dihydro-1H-pyrazolo[3,4-d]pyridazin-1-yl)benzyl)-5-fluoro-2-methoxybenzamide]
IC50 [1]: 24 nM

COc1ccc(F)cc1C(=O)NCc1ccc(-c2nn(C(CO)C(F)(F)F)c3c(=O)[nH]nc(N)c23)cc1 (stereo not shown) [Example 78, N-(4-(4-amino-7-oxo-1-(1,1,1-trifluoro-3-hydroxypropan-2-yl)-6,7-dihydro-1H-pyrazolo[3,4-d]pyridazin-3-yl)benzyl)-5-fluoro-2-methoxybenzamide]
IC50 [1]: 26 nM

COc1ccc(F)cc1C(=O)NCc1ccc(-c2nn([C@@H](CF)C3CC3)c3c(=O)[nH]nc(N)c23)cc1 [Example 88, (R)-N-(4-(4-amino-1-(1-cyclopropyl-2-fluoroethyl)-7-oxo-6,7-dihydro-1H-pyrazolo[3,4-d]pyridazin-3-yl)benzyl)-5-fluoro-2-methoxybenzamide]
IC50 [1]: 1 nM

COc1ccc(F)cc1C(=O)NCc1ccc(-c2cn(C3CCCCC3)c3c(=O)[nH]nc(N)c23)cc1 [Example 35, N-(4-(4-amino-1-cyclohexyl-7-oxo-6,7-dihydro-1H-pyrrolo[2,3-d]pyridazin-3-yl)benzyl)-5-fluoro-2-methoxybenzamide]
IC50 [1]: 1 nM
